Source: patent US20220079995A1 (priority 2018, published 2022)

Assays:
ANGPT1 mRNA = type: cell-based, human; settings: ascorbic acid alone; 1 week; GAPDH internal standard; average ± SEM
IGF1 mRNA = type: cell-based, human; settings: ascorbic acid alone; 1 week; GAPDH internal standard; average ± SEM
[1] = test system: human nucleus pulposus cells; type: cell-based; settings: ascorbic acid alone (170 μM in medium), culture 2 weeks; average ± SEM; control 4.33 ± 0.38
CSGALNACT1 mRNA = type: cell-based, human; settings: ascorbic acid alone; 1 week; GAPDH internal standard; average ± SEM

Question: How did the “Ratio to Expression Level of ANGPT1 mRNA in Control Taken as 1” value (ANGPT1 mRNA) turn out when `O=C1O[C@H]([C@@H](O)CO)C(O)=C1O` [Ascorbic Acid, ascorbic acid] was run?
Answer: The value was 3.80 ± 0.91.

Question: And the “Ratio to Expression Level of IGF1 mRNA in Control Taken as 1” value (IGF1 mRNA)?
Answer: Its value is 8.92 ± 3.30.

Question: And the “The Ratio of GAG to DNA” value [1]?
Answer: The value was 5.88 ± 0.73.

Question: What about the “Ratio to Expression Level of CSGALNACT1 mRNA in Control Taken as 1” value (CSGALNACT1 mRNA) of the same compound?
Answer: The value was 2.25 ± 0.55.
